# In patent publication US11364220B2, “Compounds and methods for inhibiting CPY26 enzymes” (Queen's University at Kingston, priority 2016, dated 2022):
# Where two headings read alike, the source gives them in different places.
# What was measured:
# CYP26A1 = CYP26A1 (Homo sapiens (Human), UniProt O43174); test: Cell-based inhibitor assay, [H]-RA metabolism in CYP26A1 stably transfected HeLa cells; settings: for IC50: CYP26A1 transfected HeLa cells, 3 hours at 37° C., inhibition of all trans-RA metabolism, read-out: IC50 26A1; for inhibition of CYP26A1-mediated RA metabolism compared with ketoconazole (in words): see IC50 values in Table 2
# Protocol: (§1) CYP26A1 or CYP26B1 stably transfected HeLa cells were maintained in Minimum Essential Medium (MEM) containing 10% fetal bovine serum (FBS) and 100 μg/mL hygromycin. Exponentially growing cells were harvested by incubation in trypsin. Cells were then collected and re-plated in 48-well culture plates at 5×10^5 cells in 0.2 mL of culture medium containing 0.05 μCi [H]-RA in the presence or absence of increasing concentrations of a test compound. The test compounds were diluted in dimethyl sulfoxide (DMSO) and then added in duplicate to wells at 0.01, 0.1, 1, 10 and 100 μM final concentration. […] Cells were incubated for 3 hours at 37° C. Retinoids were then extracted using the procedure of Bligh, et al., (1959), Canadian Journal of Biochemistry 37, 911-917, which was modified by using dichloromethane instead of chloroform. Each sample's water soluble radioactivity level was quantified using a β-scintillation counter (using Ecolume scintillation fluid, available from MP Biomedicals of Solon, Ohio, USA).
# [1] = test system: RA sensitive reporter construct pCYP26A1-luc in MCF-7 cells; test: Retinoid activity assay, RA sensitive pCYP26A1-luc reporter in MCF-7 cells; assay type: cell-based; settings: 24 hours, firefly relative to Renilla luciferase
# Text: This retinoid activity assay measures the ability of test compounds to induce expression of a transiently transfected RA sensitive reporter construct. In this assay, MCF-7 cells are transfected with a construct comprising an upstream promoter of the CYP26A1 gene containing 2 RA response elements driving expression of firefly luciferase (pCYP26A1-luc). Since CYP26A1 is highly inducible by RA in these cells, this construct serves as a sensitive reporter of retinoid-like transcriptional activity.
# MCF-7 cells were maintained in RPMI-1640 medium containing 10% FBS. Exponentially growing cells were harvested by incubation in trypsin. Cells were then collected and plated in 24-well plates at 50,000 cells/well. Once cells reached 80-90% confluence (e.g., the next day), cells were transfected with two plasmids. The first plasmid was CYP26A1-luc construct (375 ng). The second plasmid was a control plasmid comprising the Renilla luciferase gene driven by constitutive thymidine kinase promoter (pRL-tk) (25 ng). Transfection was performed using FuGene 6 transfection reagent (Promega) with a 1:3 ratio of DNA:FuGene. 24 hours after transfection, cells were treated with test compounds diluted in DMSO in triplicate at 0.1, 1 and 10 μM final concentrations. As a positive control for reporter activation, cells were also treated with RA diluted in DMSO at the same concentrations listed above. DMSO treatment alone served as a negative control. After 24 hours of treatment, cells were harvested in passive lysis buffer (Promega) and luciferase activity in cell lysates were read using a luminometer. Data are expressed as the activity of firefly luciferase relative to Renilla luciferase (see Table 3). For CYP26A1 inhibitor compounds, no activation of the reporter was detected, while the related retinoid-like compound induces luciferase expression.
# CYP26B1 = CYP26B1 (Homo sapiens (Human), UniProt Q9NR63); test: Cell-based inhibitor assay, [H]-RA metabolism in CYP26B1 stably transfected HeLa cells; settings: for IC50: read-out: IC50 26B1
# Protocol: as §1
# [2] = CYP26B1 transfected HeLa cells, 3 hours at 37° C., inhibition of all trans-RA metabolism
# CYP26A1, sequence (O43174 whole entry, species assumed): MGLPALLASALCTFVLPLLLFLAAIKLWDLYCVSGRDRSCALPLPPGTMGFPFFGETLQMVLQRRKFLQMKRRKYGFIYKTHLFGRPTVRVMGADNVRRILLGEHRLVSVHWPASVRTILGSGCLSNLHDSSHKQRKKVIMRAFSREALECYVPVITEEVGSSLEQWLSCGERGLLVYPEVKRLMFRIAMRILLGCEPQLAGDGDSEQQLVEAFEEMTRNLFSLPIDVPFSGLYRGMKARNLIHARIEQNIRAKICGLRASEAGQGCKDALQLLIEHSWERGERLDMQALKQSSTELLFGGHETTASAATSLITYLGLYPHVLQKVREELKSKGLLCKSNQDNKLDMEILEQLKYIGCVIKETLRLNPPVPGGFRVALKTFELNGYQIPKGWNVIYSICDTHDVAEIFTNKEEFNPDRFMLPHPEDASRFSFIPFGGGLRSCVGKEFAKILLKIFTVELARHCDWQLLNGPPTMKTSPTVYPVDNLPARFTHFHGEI
# CYP26B1, sequence (Q9NR63 whole entry, species assumed): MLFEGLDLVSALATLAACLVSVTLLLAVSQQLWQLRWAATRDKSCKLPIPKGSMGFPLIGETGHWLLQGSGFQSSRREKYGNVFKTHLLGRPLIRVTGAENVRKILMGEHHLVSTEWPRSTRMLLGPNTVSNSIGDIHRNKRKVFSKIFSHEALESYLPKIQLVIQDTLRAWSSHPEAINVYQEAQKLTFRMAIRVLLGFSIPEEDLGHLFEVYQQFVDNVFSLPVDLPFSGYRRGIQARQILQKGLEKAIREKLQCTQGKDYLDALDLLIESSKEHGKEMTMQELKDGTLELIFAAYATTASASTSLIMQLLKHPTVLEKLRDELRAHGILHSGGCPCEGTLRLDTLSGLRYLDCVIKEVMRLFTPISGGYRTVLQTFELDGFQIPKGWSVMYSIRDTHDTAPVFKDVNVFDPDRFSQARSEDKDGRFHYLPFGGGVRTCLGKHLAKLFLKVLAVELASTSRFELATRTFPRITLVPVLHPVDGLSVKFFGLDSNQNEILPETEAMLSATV
Compound,IC50 (CYP26A1) [µM],Luciferase Activity RLU Avg ([1]; 0.1 μM) [RLU],Luciferase Activity RLU Avg ([1]; 1 μM) [RLU],Luciferase Activity RLU Avg ([1]; 10 μM) [RLU],IC50 (CYP26B1; [2]) [µM],inhibitory activity towards CYP26A1 (in words) (CYP26A1),inhibition of CYP26A1-mediated RA metabolism compared with ketoconazole (in words) (CYP26A1),inhibition of CYP26B1 enzyme (in words) (CYP26B1),IC50 (CYP26B1) [µM]
CC1(C)CCC(C)(C)c2cc(S(=O)(=O)Nc3ccc(CC(=O)O)c(F)c3)ccc21 [Cmpd 09],2.2,0.0018,0.0017,0.0012,14.2,,,,
Cc1cc2c(cc1S(=O)(=O)Nc1ccc(C(C(=O)O)C(C)C)cc1)C(C)(C)CCC2(C)C (stereo not drawn) [Cmpd 19],0.741,0.0244,0.019,0.0076,> 100,selective inhibitory activity towards CYP26A1,comparable to or better than ketoconazole,None of the above compounds inhibited the CYP26B1 enzyme,
CC1(C)CCC(C)(C)c2cc(NC(=O)c3ccc(CC(=O)O)cc3)ccc21 [Cmpd 08],3.17,0.0025,0.0019,0.0028,19.2,,,,
C=C(Cc1ccc(NS(=O)(=O)c2ccc3c(c2)C(C)(C)CCC3(C)C)cc1F)OC [Cmpd 09A],80.5,,,,,,,,
CCC(CC)(C(=O)O)c1ccc(NS(=O)(=O)c2cc3c(cc2C)C(C)(C)CCC3(C)C)cc1 [Cmpd 18],> 1000,0.0683,0.0597,0.05,9.07,,,,
Cc1cc2c(cc1S(=O)(=O)Nc1ccc(C(=O)O)cc1)C(C)(C)CCC2(C)C [Cmpd 14],28.4,0.111,0.125,0.134,> 100,,,,
CC1(C)CCC(C)(C)c2cc(S(=O)(=O)Nc3ccc(CC(=O)O)cc3)ccc21 [Cmpd 04],1.14,0.0046,0.0035,,18.9,selective inhibitory activity towards CYP26A1,comparable to or better than ketoconazole,None of the above compounds inhibited the CYP26B1 enzyme,
Cc1cc(S(=O)(=O)Nc2ccc(CC(=O)O)cc2)cc2c1OC(C)(C)CC2(C)C [Cmpd 21],1.9,,,,,selective inhibitory activity towards CYP26A1,comparable to or better than ketoconazole,None of the above compounds inhibited the CYP26B1 enzyme,21.8
C=C(Cc1ccc(NS(=O)(=O)c2cc3c(cc2Br)C(C)(C)CCC3(C)C)cc1)OC [Cmpd 04B],8.24,,,,,,,,
CN(C(=O)c1ccc2c(c1)C(C)(C)CCC2(C)C)c1ccc(CC(=O)O)cc1 [Cmpd 03],> 100,0.0041,0.0039,0.005,65.4,,,,
CC(C)c1cc2c(cc1S(=O)(=O)Nc1ccc(CC(=O)O)cc1)C(C)(C)CCC2(C)C [Cmpd 11],20,0.064,0.062,0.044,> 1000,,,,
CC1(C)CCOc2ccc(C(=O)Nc3ccc(CC(=O)O)cc3)cc21 [Cmpd 05],39.7,,,,11.5,,,,
C=C(Cc1ccc(NS(=O)(=O)c2ccc3c(c2)C(C)(C)CCC3(C)C)cc1)OC [Cmpd 04A],14,,,,,,,,
CC1(C)CCC(C)(C)c2cc(C(=O)Nc3ccc(CC(=O)O)cc3)ccc21 [Cmpd 01],5.66,0.0041,0.0053,0.0077,8.81,,,,
Cc1cc2c(cc1C(=O)Nc1ccc(CC(=O)O)cc1)C(C)(C)CCC2(C)C [Cmpd 02],0.83,0.004,0.0042,0.0066,2.06,selective inhibitory activity towards CYP26A1,comparable to or better than ketoconazole,None of the above compounds inhibited the CYP26B1 enzyme,
Cc1cc2c(c(C)c1C(=O)Nc1ccc(CC(=O)O)cc1)C(C)(C)CCC2(C)C [Cmpd 10],8.23,0.073,0.076,0.084,0.55,,,,
Cc1cc2c(cc1C(=O)Nc1ccc(C(C)(C)C(=O)O)cc1)C(C)(C)CCC2(C)C [Cmpd 16],1.77,0.166,0.183,0.155,11.9,selective inhibitory activity towards CYP26A1,comparable to or better than ketoconazole,None of the above compounds inhibited the CYP26B1 enzyme,
CC(C)c1cc2c(cc1C(=O)Nc1ccc(CC(=O)O)cc1)C(C)(C)CCC2(C)C [Cmpd 06],1.29,0.0021,0.002,0.0018,42.3,selective inhibitory activity towards CYP26A1,comparable to or better than ketoconazole,None of the above compounds inhibited the CYP26B1 enzyme,
Cc1cc2c(cc1S(=O)(=O)Nc1ccc(CC(=O)O)cc1)C(C)(C)CCC2(C)C [Cmpd 07],,0.0016,0.0019,0.0011,,,,,
Cc1cc2c(cc1S(=O)(=O)Nc1ccc(C3(C(=O)O)CC3)cc1)C(C)(C)CCC2(C)C [Cmpd 13],6.2,0.113,0.07,0.04,> 100,,,,
CCC(CC)(C(=O)O)c1ccc(NS(=O)(=O)c2ccc3c(c2)C(C)(C)CCC3(C)C)cc1 [Cmpd 17],38.7,0.023,0.026,0.038,0.29,,,,
